Assay results published in patent publication US9102648B1, “Bioavailable diacylhydrazine ligands for modulating the expression of exogenous genes via an ecdysone receptor complex” (Intrexon Corporation, priority 2003, dated 2015).

Assays:
[1] = target: T1, Bombyx mori EcR (VP16 fusion, CVBE switch construct) (Bombyx mori, UniProt P49881); experiment: Z3 Assay (HEK-293 cells with CVBE and 6XEcRE LacZ, β-galactosidase reporter); conditions: for Fold Induction, Z3 Assay, 3.3 uM: 3.3 uM ligand; for Fold Induction, Z3 Assay, 3.3 uM / Fold Induction, Z3 Assay, 33 uM: ligand treated / DMSO treated cells; for Fold Induction, Z3 Assay, 3.3 uM / Fold Induction, Z3 Assay, 33 uM / EC50: average of two wells; for Fold Induction, Z3 Assay, 33 uM: 33 uM ligand; for Z3 assay Rel Max FI: maximum fold induction at any concentration relative to that of GS-E ligand; for Z3 assay Rel Max FI / EC50: HEK-293 Z3 cells; for EC50: read-out: Z3 assay EC50, β-galactosidase reporter
T1 sequence (P49881 86-606): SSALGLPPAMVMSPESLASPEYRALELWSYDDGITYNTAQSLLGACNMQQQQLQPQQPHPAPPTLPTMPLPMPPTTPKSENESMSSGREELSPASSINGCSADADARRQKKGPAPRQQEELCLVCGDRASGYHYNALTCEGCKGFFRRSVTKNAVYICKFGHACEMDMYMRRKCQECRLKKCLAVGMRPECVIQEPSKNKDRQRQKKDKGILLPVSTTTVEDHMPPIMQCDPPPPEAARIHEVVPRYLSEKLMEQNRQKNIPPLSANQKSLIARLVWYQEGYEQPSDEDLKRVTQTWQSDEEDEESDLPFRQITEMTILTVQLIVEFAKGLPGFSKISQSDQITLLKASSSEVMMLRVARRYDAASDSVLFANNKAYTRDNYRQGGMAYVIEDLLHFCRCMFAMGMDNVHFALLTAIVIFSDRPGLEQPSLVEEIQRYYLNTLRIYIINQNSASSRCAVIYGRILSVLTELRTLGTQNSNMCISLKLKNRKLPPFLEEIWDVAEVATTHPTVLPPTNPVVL
T1 sequence (P19793 1-462 partner): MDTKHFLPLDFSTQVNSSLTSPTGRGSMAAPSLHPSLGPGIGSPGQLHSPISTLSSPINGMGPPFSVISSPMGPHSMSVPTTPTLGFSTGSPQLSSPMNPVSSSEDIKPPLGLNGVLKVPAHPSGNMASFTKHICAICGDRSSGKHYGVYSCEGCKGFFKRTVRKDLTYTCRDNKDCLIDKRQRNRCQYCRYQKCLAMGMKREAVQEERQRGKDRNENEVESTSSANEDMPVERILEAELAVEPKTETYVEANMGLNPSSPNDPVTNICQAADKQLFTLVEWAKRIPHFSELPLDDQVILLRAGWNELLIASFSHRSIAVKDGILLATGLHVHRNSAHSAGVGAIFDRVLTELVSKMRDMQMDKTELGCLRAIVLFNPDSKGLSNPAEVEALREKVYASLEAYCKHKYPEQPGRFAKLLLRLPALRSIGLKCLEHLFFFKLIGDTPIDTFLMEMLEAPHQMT
Description: Dr. F. Gage provided a population of stably transformed cells containing CVBE and 6XEcRE as described in Suhr, S. T., Gil, E. B., Senut M. C., Gage, F. H. (1998) Proc. Natl. Acad. Sci. USA 95, 7999-804. Human 293 kidney cells, also referred to as HEK-293 cells, were sequentially infected with retroviral vectors encoding first the switch construct CVBE, and subsequently the reporter construct 6XEcRE Lac Z. The switch construct contained the coding sequence for amino acids 26-546 from Bombyx mori EcR (BE) (Iatrou) inserted in frame and downstream of the VP16 transactivation domain (VBE). A synthetic ATG start codon was placed under the control of cytomegalovirus (CVBE) immediate early promoter and flanked by long terminal repeats (LTR). The reporter construct contained six copies of the ecdysone response element (EcRE) binding site placed upstream of LacZ and flanked on both sides with LTR sequences (6XEcRE).
Dilution cloning was used to isolate individual clones. Clones were selected using 450 ug/mL G418 and 100 ng/mL puromycin. Individual clones were evaluated based on their response in the presence and absence of test ligands.
Human 293 kidney cells stably transformed with CVBE and 6XEcRE LacZ were maintained in Minimum Essential Medium (Mediates, 10-010-CV) containing 10% FBS (Life Technologies, 26140-087), […] G418 (Mediates, 30-234-CR), and […] (Sigma, P-7255), at 37° C. in an atmosphere containing 5% CO2 and were subculture when they reached 75% confluence.
Z3 cells were seeded into 96-well tissue culture plates at a concentration of 2.5×10^3 cells per well and incubated at 37° C. in 5% CO2 for twenty-four hours. Stock solutions of ligands were prepared in DMSO. Ligand stock solutions were diluted 100 fold in media and 50 μL of this diluted ligand solution ([…]) was added to cells. The final concentration of DMSO was maintained at 0.03% in both controls and treatments.
Reporter gene expression was evaluated 48 hours after treatment of cells, β-galactosidase activity was measured using Gal Screen™ bioluminescent reporter gene assay system from Tropix (GSY1000). Fold induction activities were calculated by dividing relative light units (“RLU”) in ligand treated cells with RLU in DMSO treated cells. Luminescence was detected at room temperature using a Dynex MLX microtiter plate luminometer.
Flanking both constructs are long terminal repeats, G418 and puromycin are selectable markers, CMV is the cytomegalovirus promoter, VBE is coding sequence for amino acids 26-546 from Bombyx mori EcR inserted downstream of the VP16 transactivation domain, 6×EcRE is six copies of the ecdysone response element, lacZ encodes for the reporter enzyme β-galactosidase.
(§1) Each assay was conducted in two separate wells, and the two values were averaged. Fold inductions were calculated by dividing relative light units (“RLU”) in ligand treated cells with RLU in DMSO treated cells. EC50s were calculated from dose response data using a three-parameter logistic model.

[2] = target: GAL4 DBD-CfEcR(DEF)/VP16AD-MmRXRE (Choristoneura fumiferana, UniProt O77240); experiment: 13B3 Assay (CHO stable cell line, luciferase reporter); conditions: for Fold Induction, 13B3 Assay, 33 uM: 33 uM ligand; for Fold Induction, 13B3 Assay, 33 uM / Fold Induction, 13B3 Assay, 3.3 uM: RLU ligand treated / RLU DMSO treated cells; for Fold Induction, 13B3 Assay, 33 uM / Fold Induction, 13B3 Assay, 3.3 uM / EC50: average of two wells; for Fold Induction, 13B3 Assay, 3.3 uM: 3.3 uM ligand; for 13B3 assay Rel Max FI: maximum fold induction at any concentration relative to that of GS-E ligand, CHO 13B3 cells; for EC50: read-out: 13B3 EC50, CHO 13B3 stable cell line, luciferase reporter, 48 h
Description: GAL4 DBD-CfEcR(DEF)/VP16AD-MmRXRE:
The wild-type D, E, and F domains from spruce budworm Choristoneura fumiferana EcR (“CfEcR-DEF”; SEQ ID NO: 1) were fused to a GALA DNA binding domain (“Gal4DBD1-147”; SEQ ID NO: 2) and placed under the control of the SV40e promoter of pM vector (PT3119-5, Clontech, Palo Alto, Calif.). The D and E domains from Mus Musculus RXR (“MmRXR-DE”; SEQ ID NO: 11) were fused to the transactivation domain from VP16 (“VP16AD”; SEQ ID NO: 6) and placed under the control of the SV40e promoter of the pVP16 vector (PT3127-5, Clontech, Palo Alto, Calif.).
CHO cells were transiently transfected with transcription cassettes for GAL4 DBD-CJEcR(DEF) and for VP16AD-MmRXRE controlled by SV40e promoters. Stably transfected cells were selected using Hygromycin. Individually isolated CHO cell clones were transiently transfected with a GALA RE-luciferase reporter (pFR-Luc, Stratagene, La Jolla, Calif.). The 13B3 clone was selected using Zeocin.
Cells were trypsinized and diluted to a concentration of 2.5×10^4 cells mL. 100 μL of cell suspension was placed in each well of a 96 well plate and incubated at 37° C. under 5% CO2 for 24 h. Ligand stock solutions were prepared in DMSO and diluted 300 fold for all treatments. Dose response testing consisted of 8 concentrations ranging from 33 μM to 0.01 μM.
Luciferase reporter gene expression was measured 48 h after cell treatment using Bright-Glo™ Luciferase Assay System from Promega (E2650). Luminescence was detected at room temperature using a Dynex MLX microtiter plate luminometer.
as §1

SMILES | Fold Induction, Z3 Assay, 3.3 uM [1] | Fold Induction, Z3 Assay, 33 uM [1] | Z3 assay Rel Max FI [1] | EC50 [1] [nM] | Fold Induction, 13B3 Assay, 33 uM [2] | Fold Induction, 13B3 Assay, 3.3 uM [2] | 13B3 assay Rel Max FI [2] | EC50 [2] [nM]
Cc1c(C(=O)NN(C(=O)c2cc(Cl)cc(Cl)c2)C(C)(C)C)cccc1N(C)C [RG-101316] | 1045 | 350 | 0.896 | 1580 | 1280 |  |  | 
COc1ccc(C(=O)NN(C(=O)c2cc(Cl)cc(Cl)c2)C(C)(C)C)cc1 [RG-101376] | 1293 | 415 | 0.777 | 537 | 7393 | 25656 | 0.654 | 1360
CCc1ccc(C(=O)NN(C(=O)c2cc(C)ccc2[N+](=O)[O-])C(C)(C)C)cc1 [RG-101398] | 1138 | 403 | 0.712 | 282 | 159 |  |  | 
COc1cccc(C(=O)NN(C(=O)c2cc(C)cc(C)c2)C(C)(C)C)c1I [RG-101528] | 748 | 1515 | 0.923 | 1050 | 3027 | 259 | 1.111 | 29300
Cc1cc(C)cc(C(=O)N(NC(=O)c2ccc3c(c2)CCO3)C(C)(C)C)c1 [RG-101531] | 1130 | 428 |  | 85 | 274 |  |  | 
Cc1ccc(C(=O)NN(C(=O)c2cc(C)cc(C)c2)C(C)(C)C)cc1 [RG-101542] | 1151 | 324 | 0.793 | 324 | 439 |  |  | 
Cc1cc(C(=O)N(NC(=O)c2cccc(Cl)c2C)C(C)(C)C)ccc1Br [RG-101664] | 6 | 1 |  | 21100 |  | 1 | 0.002 | > 50000
Cc1cc(C)cc(C(=O)N(NC(=O)c2cccc(OC(C)C)c2C)C(C)(C)C)c1 [RG-101670] | 1190 | 929 | 0.853 | 468 | 738 | 2297 | 0.874 | 646
Cc1cc(C)cc(C(=O)N(NC(=O)c2cccc(I)c2C)C(C)(C)C)c1 [RG-101734] | 987 | 951 | 0.988 | 145 | 442 | 918 |  | 
